In patent publication US6638973B2, “Taxane formulations” (FSU Research Foundation, Inc., priority 2000, dated 2003):

system: HCT116 cells; experiment: In vitro cytotoxicity measured by the cell colony formation assay; format: cell-based; details: HCT116 cells, 72 h drug incubation, colonies counted after 7 days; ID50 = drug concentration producing 50% inhibition of colony formation; read-out: IN VITRO ID 50 (nm) HCT116
Method in brief: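 Colony-forming survival was scored 7 days after a 72 h, 37 °C compound exposure followed by washout into fresh medium.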

Compound | IC50 [nM]
CC(=O)O[C@@]12CO[C@@H]1C[C@H](OC(=O)Nc1ccc(F)c(F)c1)[C@@]1(C)C(=O)[C@H](O)C3=C(C)[C@@H](OC(=O)[C@H](O)[C@@H](NC(=O)C=C(C)C)c4ccco4)C[C@@](O)([C@@H](OC(=O)c4ccccc4)C12)C3(C)C (stereo partly shown) [Compound 5522] | < 1
CC(=O)O[C@@]12CO[C@@H]1C[C@H](OC(=O)Nc1ccc(F)c(F)c1)[C@@]1(C)C(=O)[C@H](O)C3=C(C)[C@@H](OC(=O)[C@H](O)[C@@H](NC(=O)OC(C)(C)C)c4ccco4)C[C@@](O)([C@@H](OC(=O)c4ccccc4)C12)C3(C)C (stereo partly shown) [Compound 5415] | < 1
CC(=O)O[C@@]12CO[C@@H]1C[C@H](OC(=O)NC1CCCCC1)[C@@]1(C)C(=O)[C@H](O)C3=C(C)[C@@H](OC(=O)[C@H](O)[C@@H](NC(=O)OC(C)(C)C)c4ccco4)C[C@@](O)([C@@H](OC(=O)c4ccccc4)C12)C3(C)C (stereo partly shown) [Compound 5373] | < 10

same assay, conditions: HCT116 cells, 72 h incubation with drug, colonies counted after 7 days; ID50 = drug concentration producing 50% inhibition of colony formation; read-out: IN VITRO ID 50 (nm) HCT116

Compound | IC50 [nM]
COC(=O)O[C@H]1C[C@H]2OC[C@@]2(OC(C)=O)C2[C@H](OC(=O)c3ccccc3)[C@]3(O)C[C@H](OC(=O)[C@H](O)[C@H](C=C(C)C)NC(=O)OCC(C)C)C(C)=C([C@@H](O)C(=O)[C@@]21C)C3(C)C (stereo partly shown) [Compound 4644] | < 10
CCOC(=O)O[C@H]1C(=O)[C@@]2(C)C([C@H](OC(=O)c3ccccc3)[C@]3(O)C[C@H](OC(=O)[C@H](O)[C@@H](NC(=O)OC(C)(C)C)c4ccco4)C(C)=C1C3(C)C)[C@]1(OC(C)=O)CO[C@@H]1C[C@@H]2O (stereo partly shown) [Compound 1822] | < 1
CCOC(=O)O[C@H]1C[C@H]2OC[C@@]2(OC(C)=O)C2[C@H](OC(=O)c3ccccc3)[C@]3(O)C[C@H](OC(=O)[C@H](O)[C@H](C=C(C)C)NC(=O)OC(C)(C)C)C(C)=C([C@@H](O)C(=O)[C@@]21C)C3(C)C (stereo partly shown) [Compound 4524] | < 1
COC(=O)O[C@H]1C(=O)[C@@]2(C)C([C@H](OC(=O)c3ccccc3)[C@]3(O)C[C@H](OC(=O)[C@H](O)[C@@H](NC(=O)OC(C)(C)C)C(C)C)C(C)=C1C3(C)C)[C@]1(OC(C)=O)CO[C@@H]1C[C@@H]2O (stereo partly shown) [Compound 2062] | < 10
COC(=O)O[C@H]1C(=O)[C@@]2(C)C([C@H](OC(=O)c3ccccc3)[C@]3(O)C[C@H](OC(=O)[C@H](O)[C@@H](NC(=O)OC(C)(C)C)c4ccc([N+](=O)[O-])cc4)C(C)=C1C3(C)C)[C@]1(OC(C)=O)CO[C@@H]1C[C@@H]2O (stereo partly shown) [Compound 2088] | < 1
COC(=O)O[C@H]1C[C@H]2OC[C@@]2(OC(C)=O)C2[C@H](OC(=O)c3ccccc3)[C@]3(O)C[C@H](OC(=O)[C@H](O)[C@@H](NC(=O)c4cccs4)c4cccs4)C(C)=C([C@@H](O)C(=O)[C@@]21C)C3(C)C (stereo partly shown) [Compound 4424] | < 1
CCOC(=O)O[C@H]1C(=O)[C@@]2(C)C([C@H](OC(=O)c3ccccc3)[C@]3(O)C[C@H](OC(=O)[C@H](O)[C@@H](NC(=O)OCC(C)C)C4CC4)C(C)=C1C3(C)C)[C@]1(OC(C)=O)CO[C@@H]1C[C@@H]2O (stereo partly shown) [Compound 4844] | < 1

same assay, conditions: HCT116 colony formation; 72 h drug incubation, colonies counted after 7 days; Example 5, C-7 ester/C-10 hydroxy taxanes; read-out: IN VITRO ID 50 (nm) HCT116

Compound | IC50 [nM]
CCC(=O)O[C@H]1C[C@H]2OC[C@@]2(OC(C)=O)C2[C@H](OC(=O)c3ccccc3)[C@]3(O)C[C@H](OC(=O)[C@H](O)[C@@H](NC(=O)OCC(C)C)c4ccsc4)C(C)=C([C@@H](O)C(=O)[C@@]21C)C3(C)C (stereo partly shown) [Compound 4544] | < 10
CCCC(=O)O[C@H]1C[C@H]2OC[C@@]2(OC(C)=O)C2[C@H](OC(=O)c3ccccc3)[C@]3(O)C[C@H](OC(=O)[C@H](O)[C@@H](NC(=O)OCC(C)C)c4ccco4)C(C)=C([C@@H](O)C(=O)[C@@]21C)C3(C)C (stereo partly shown) [Compound 4616] | < 1
CCC(=O)O[C@H]1C[C@H]2OC[C@@]2(OC(C)=O)C2[C@H](OC(=O)c3ccccc3)[C@]3(O)C[C@H](OC(=O)[C@H](O)[C@@H](NC(=O)OCC(C)C)c4ccoc4)C(C)=C([C@@H](O)C(=O)[C@@]21C)C3(C)C (stereo partly shown) [Compound 4787] | < 10
CCCCC(=O)O[C@H]1C[C@H]2OC[C@@]2(OC(C)=O)C2[C@H](OC(=O)c3ccccc3)[C@]3(O)C[C@H](OC(=O)[C@H](O)[C@@H](NC(=O)OC=C(C)C)c4ccco4)C(C)=C([C@@H](O)C(=O)[C@@]21C)C3(C)C (stereo partly shown) [Compound 6141] | < 1
CCC(=O)OC1CC2OCC2(OC(C)=O)C2C(OC(=O)c3ccccc3)C3(O)CC(OC(=O)C(O)C(NC(=O)OC(C)(C)C)c4ccco4)C(C)=C(C(O)C(=O)C12C)C3(C)C (stereo not shown) [Compound 1393, 3′-Desphenyl-3′-(2-furyl)-7-propionyl taxotere] | < 1
CC(=O)O[C@@]12CO[C@@H]1C[C@H](OC(=O)C(C)C)[C@@]1(C)C(=O)[C@H](O)C3=C(C)[C@@H](OC(=O)[C@H](O)[C@@H](NC(=O)OC=C(C)C)c4ccco4)C[C@@](O)([C@@H](OC(=O)c4ccccc4)C12)C3(C)C (stereo partly shown) [Compound 5989] | < 10
CCC(=O)O[C@H]1C[C@H]2OC[C@@]2(OC(C)=O)C2[C@H](OC(=O)c3ccccc3)[C@]3(O)C[C@H](OC(=O)[C@H](O)[C@@H](NC(=O)c4ccco4)c4ccco4)C(C)=C([C@@H](O)C(=O)[C@@]21C)C3(C)C (stereo partly shown) [Compound 3629] | < 1
CCCC(=O)O[C@H]1C[C@H]2OC[C@@]2(OC(C)=O)C2[C@H](OC(=O)c3ccccc3)[C@]3(O)C[C@H](OC(=O)[C@H](O)[C@@H](NC(=O)OC=C(C)C)c4ccco4)C(C)=C([C@@H](O)C(=O)[C@@]21C)C3(C)C (stereo partly shown) [Compound 6181] | < 1
CCC(=O)O[C@H]1C[C@H]2OC[C@@]2(OC(C)=O)C2[C@H](OC(=O)c3ccccc3)[C@]3(O)C[C@H](OC(=O)[C@H](O)[C@@H](NC(=O)OC(C)(C)CC)c4ccco4)C(C)=C([C@@H](O)C(=O)[C@@]21C)C3(C)C (stereo partly shown) [Compound 6424] | 21.7
CCCC(=O)O[C@H]1C[C@H]2OC[C@@]2(OC(C)=O)C2[C@H](OC(=O)c3ccccc3)[C@]3(O)C[C@H](OC(=O)[C@H](O)[C@H](C=C(C)C)NC(=O)OCC(C)C)C(C)=C([C@@H](O)C(=O)[C@@]21C)C3(C)C (stereo partly shown) [Compound 5131] | < 10

same assay, conditions: HCT116 colony formation; 72 h drug incubation, colonies counted after 7 days; Example 10, C-10 ester/C-7 hydroxy taxanes; read-out: IN VITRO ID 50 (nm) HCT116

Compound | IC50 [nM]
CC(=O)O[C@@]12CO[C@@H]1C[C@H](O)[C@@]1(C)C(=O)[C@H](OC(=O)C3CC3)C3=C(C)[C@@H](OC(=O)[C@H](O)[C@@H](NC(=O)c4ccccc4)c4ccccn4)C[C@@](O)([C@@H](OC(=O)c4ccccc4)C12)C3(C)C (stereo partly shown) [Compound 2844] | < 10
C/C=C/C(=O)O[C@H]1C(=O)[C@@]2(C)C([C@H](OC(=O)c3ccccc3)[C@]3(O)C[C@H](OC(=O)[C@H](O)[C@@H](NC(=O)OC(C)(C)C)C(C)C)C(C)=C1C3(C)C)[C@]1(OC(C)=O)CO[C@@H]1C[C@@H]2O (stereo partly shown) [Compound 2413] | < 10
CC(=O)OC12COC1CC(O)C1(C)C(=O)C(OC(=O)c3cccs3)C3=C(C)C(OC(=O)C(O)C(C=C(C)C)NC(=O)OC(C)(C)C)CC(O)(C(OC(=O)c4ccccc4)C21)C3(C)C (stereo not shown) [Compound 1879] | < 10
CC(=O)O[C@@]12CO[C@@H]1C[C@H](O)[C@@]1(C)C(=O)[C@H](OC(=O)C3CC3)C3=C(C)[C@@H](OC(=O)[C@H](O)[C@@H](NC(=O)OC(C)(C)C)C4CC4)C[C@@](O)([C@@H](OC(=O)c4ccccc4)C12)C3(C)C (stereo partly shown) [Compound 0860] | < 1
CCCC(=O)O[C@H]1C(=O)[C@@]2(C)C([C@H](OC(=O)c3ccccc3)[C@]3(O)C[C@H](OC(=O)[C@H](O)[C@@H](NC(=O)c4ccccc4)C4CC4)C(C)=C1C3(C)C)[C@]1(OC(C)=O)CO[C@@H]1C[C@@H]2O (stereo partly shown) [Compound 3482] | < 1
C/C=C/C(=O)O[C@H]1C(=O)[C@@]2(C)C([C@H](OC(=O)c3ccccc3)[C@]3(O)C[C@H](OC(=O)[C@H](O)[C@@H](NC(=O)OC(C)(C)C)C4CCC4)C(C)=C1C3(C)C)[C@]1(OC(C)=O)CO[C@@H]1C[C@@H]2O (stereo partly shown) [Compound 2424] | < 10
CCCC(=O)O[C@H]1C(=O)[C@@]2(C)C([C@H](OC(=O)c3ccccc3)[C@]3(O)C[C@H](OC(=O)[C@H](O)[C@@H](NC(=O)C=C(C)C)c4cccs4)C(C)=C1C3(C)C)[C@]1(OC(C)=O)CO[C@@H]1C[C@@H]2O (stereo partly shown) [Compound 4344] | < 1
CC(=O)OC12COC1CC(O)C1(C)C(=O)C(OC(=O)c3ccco3)C3=C(C)C(OC(=O)C(O)C(NC(=O)OC(C)(C)C)c4ccsc4)CC(O)(C(OC(=O)c4ccccc4)C21)C3(C)C (stereo not shown) [Compound 2173] | < 1
CCC(=O)O[C@H]1C(=O)[C@@]2(C)C([C@H](OC(=O)c3ccccc3)[C@]3(O)C[C@H](OC(=O)[C@H](O)[C@@H](NC(=O)c4cccs4)c4ccco4)C(C)=C1C3(C)C)[C@]1(OC(C)=O)CO[C@@H]1C[C@@H]2O (stereo partly shown) [Compound 3644] | < 1
CC(=O)O[C@@]12CO[C@@H]1C[C@H](O)[C@@]1(C)C(=O)[C@H](OC(=O)C3CC3)C3=C(C)[C@@H](OC(=O)[C@H](O)[C@@H](NC(=O)C=C(C)C)c4cccs4)C[C@@](O)([C@@H](OC(=O)c4ccccc4)C12)C3(C)C (stereo partly shown) [Compound 4329] | < 1
CCC(=O)O[C@H]1C(=O)[C@@]2(C)C([C@H](OC(=O)c3ccccc3)[C@]3(O)C[C@H](OC(=O)[C@H](O)[C@@H](NC(=O)c4ccco4)c4cccs4)C(C)=C1C3(C)C)[C@]1(OC(C)=O)CO[C@@H]1C[C@@H]2O (stereo partly shown) [Compound 3053] | < 1
CC(=O)OC12COC1CC(O)C1(C)C(=O)C(OC(=O)c3ccco3)C3=C(C)C(OC(=O)C(O)C(C=C(C)C)NC(=O)OC(C)(C)C)CC(O)(C(OC(=O)c4ccccc4)C21)C3(C)C (stereo not shown) [Compound 2101] | < 1
CC(=O)O[C@@]12CO[C@@H]1C[C@H](O)[C@@]1(C)C(=O)[C@H](OC(=O)C3CC3)C3=C(C)[C@@H](OC(=O)[C@H](O)[C@@H](NC(=O)c4ccccc4)c4ccoc4)C[C@@](O)([C@@H](OC(=O)c4ccccc4)C12)C3(C)C (stereo partly shown) [Compound 2826] | < 1
CCC(=O)O[C@H]1C(=O)[C@@]2(C)C([C@H](OC(=O)c3ccccc3)[C@]3(O)C[C@H](OC(=O)[C@H](O)[C@@H](NC(=O)c4ccccc4)c4ccc([N+](=O)[O-])cc4)C(C)=C1C3(C)C)[C@]1(OC(C)=O)CO[C@@H]1C[C@@H]2O (stereo partly shown) [Compound 0732] | < 10
